Assay results reported in ChEMBL document CHEMBL5653615 (J Biol Chem, 2013).
Calls of active or inactive are those of the source. The calls are words filed in the database; no cut-off is given here.

Key:
[1] = molecular target: T1, Phosphorylase b kinase gamma catalytic chain, liver/testis isoform (Homo sapiens) (UniProt P15735); test: Inhibition of human PHKg2 at 500 nM by HotSpot assay relative to control
T1 sequence (whole entry): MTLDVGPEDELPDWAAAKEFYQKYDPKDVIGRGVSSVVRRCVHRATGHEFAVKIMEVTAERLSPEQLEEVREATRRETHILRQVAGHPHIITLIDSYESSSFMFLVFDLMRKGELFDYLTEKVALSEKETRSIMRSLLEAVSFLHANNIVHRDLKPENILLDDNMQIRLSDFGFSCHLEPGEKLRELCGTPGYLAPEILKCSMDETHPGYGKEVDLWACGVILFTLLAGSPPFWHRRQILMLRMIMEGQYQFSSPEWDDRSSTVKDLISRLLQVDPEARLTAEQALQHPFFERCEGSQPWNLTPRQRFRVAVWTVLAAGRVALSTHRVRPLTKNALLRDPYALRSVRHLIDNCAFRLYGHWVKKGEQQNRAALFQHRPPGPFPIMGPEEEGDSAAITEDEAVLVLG

[2] = molecular target: Serine/threonine-protein kinase PAK 2 (Homo sapiens) (UniProt Q13177); test: Inhibition of human PAK2 at 500 nM by HotSpot assay relative to control
[3] = molecular target: T2, Rhodopsin kinase GRK7 (Homo sapiens) (UniProt Q8WTQ7); test: Inhibition of human GRK7 at 500 nM by HotSpot assay relative to control
T2 sequence (whole entry): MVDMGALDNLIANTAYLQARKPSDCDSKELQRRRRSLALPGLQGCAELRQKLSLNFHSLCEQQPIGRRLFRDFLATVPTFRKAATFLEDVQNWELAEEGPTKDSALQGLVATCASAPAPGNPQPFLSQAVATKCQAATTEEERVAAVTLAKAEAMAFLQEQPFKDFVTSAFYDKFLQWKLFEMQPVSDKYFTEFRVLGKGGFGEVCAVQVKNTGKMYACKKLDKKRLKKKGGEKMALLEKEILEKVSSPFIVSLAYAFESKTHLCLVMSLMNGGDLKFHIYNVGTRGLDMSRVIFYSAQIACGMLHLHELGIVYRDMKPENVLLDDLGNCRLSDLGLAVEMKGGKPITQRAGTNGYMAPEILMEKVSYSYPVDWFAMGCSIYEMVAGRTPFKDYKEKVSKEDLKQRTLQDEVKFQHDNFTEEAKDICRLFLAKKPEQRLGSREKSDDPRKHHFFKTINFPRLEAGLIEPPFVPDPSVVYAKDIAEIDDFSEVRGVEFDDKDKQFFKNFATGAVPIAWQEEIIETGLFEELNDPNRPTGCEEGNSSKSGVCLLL

[4] = molecular target: Ephrin type-A receptor 7 (Homo sapiens) (UniProt Q15375); test: Inhibition of human EPHA7 at 500 nM by HotSpot assay relative to control
[5] = molecular target: Mitogen-activated protein kinase 11 (Homo sapiens) (UniProt Q15759); test: Inhibition of human MAPK11 at 500 nM by HotSpot assay relative to control
[6] = molecular target: Macrophage colony-stimulating factor 1 receptor (Homo sapiens) (UniProt P07333); test: Inhibition of human FMS at 500 nM by HotSpot assay relative to control
[7] = molecular target: STE20-like serine/threonine-protein kinase (Homo sapiens) (UniProt Q9H2G2); test: Inhibition of human STK2 at 500 nM by HotSpot assay relative to control
[8] = molecular target: Receptor-type tyrosine-protein kinase FLT3 (Homo sapiens) (UniProt P36888); test: Inhibition of human FLT3 at 500 nM by HotSpot assay relative to control
[9] = molecular target: Death-associated protein kinase 1 (Homo sapiens) (UniProt P53355); test: Inhibition of human DAPK1 at 500 nM by HotSpot assay relative to control
[10] = molecular target: Ephrin type-B receptor 4 (Homo sapiens) (UniProt P54760); test: Inhibition of human EPHB4 at 500 nM by HotSpot assay relative to control
[11] = molecular target: T3, Testis-specific serine/threonine-protein kinase 2 (Homo sapiens) (UniProt Q96PF2); test: Inhibition of human TSSK2 at 500 nM by HotSpot assay relative to control
T3 sequence (whole entry): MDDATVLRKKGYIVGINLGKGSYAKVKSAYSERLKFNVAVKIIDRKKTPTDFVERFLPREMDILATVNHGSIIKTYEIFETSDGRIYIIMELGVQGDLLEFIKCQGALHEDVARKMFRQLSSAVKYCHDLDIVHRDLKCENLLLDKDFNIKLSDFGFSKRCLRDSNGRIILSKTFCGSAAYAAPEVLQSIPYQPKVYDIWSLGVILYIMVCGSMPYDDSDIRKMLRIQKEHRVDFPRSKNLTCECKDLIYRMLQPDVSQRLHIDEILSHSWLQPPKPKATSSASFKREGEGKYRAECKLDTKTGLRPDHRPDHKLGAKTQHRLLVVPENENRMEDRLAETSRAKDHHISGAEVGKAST

[12] = molecular target: MAP kinase-activated protein kinase 5 (Homo sapiens) (UniProt Q8IW41); test: Inhibition of human MAPKAPK5 at 500 nM by HotSpot assay relative to control
[13] = molecular target: Calcium/calmodulin-dependent protein kinase type II subunit delta (Homo sapiens) (UniProt Q13557); test: Inhibition of human CAMK2d at 500 nM by HotSpot assay relative to control
[14] = molecular target: Casein kinase I isoform delta (Homo sapiens) (UniProt P48730); test: Inhibition of human CK1d at 500 nM by HotSpot assay relative to control
[15] = molecular target: Serine/threonine-protein kinase PAK 5 (Homo sapiens) (UniProt Q9P286); test: Inhibition of human PAK5 at 500 nM by HotSpot assay relative to control
[16] = Inhibition of mono-phosphorylated human Insulin receptor (978 to 1283 residues) C981S mutant kinase domain expressed in baculovirus infected Sf9 cells incubated for 1 hr by [gamma-33P]ATP assay
[17] = molecular target: Serine/threonine-protein kinase MRCK beta (Homo sapiens) (UniProt Q9Y5S2); test: Inhibition of human CDC42BPB at 500 nM by HotSpot assay relative to control

Sequence of Casein kinase I isoform delta (Homo sapiens) (P48730 whole entry, looked up, canonical isoform): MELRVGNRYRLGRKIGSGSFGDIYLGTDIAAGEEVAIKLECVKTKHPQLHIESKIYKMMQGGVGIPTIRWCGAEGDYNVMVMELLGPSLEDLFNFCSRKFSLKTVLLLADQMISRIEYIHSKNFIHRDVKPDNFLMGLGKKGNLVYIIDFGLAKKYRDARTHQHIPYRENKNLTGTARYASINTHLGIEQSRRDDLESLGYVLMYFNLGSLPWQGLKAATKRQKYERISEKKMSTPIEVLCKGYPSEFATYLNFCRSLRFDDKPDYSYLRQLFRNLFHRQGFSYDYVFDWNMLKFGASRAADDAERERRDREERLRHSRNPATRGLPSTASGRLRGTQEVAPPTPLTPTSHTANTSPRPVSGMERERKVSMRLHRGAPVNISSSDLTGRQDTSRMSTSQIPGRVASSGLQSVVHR
Sequence of Death-associated protein kinase 1 (Homo sapiens) (P53355 whole entry, looked up): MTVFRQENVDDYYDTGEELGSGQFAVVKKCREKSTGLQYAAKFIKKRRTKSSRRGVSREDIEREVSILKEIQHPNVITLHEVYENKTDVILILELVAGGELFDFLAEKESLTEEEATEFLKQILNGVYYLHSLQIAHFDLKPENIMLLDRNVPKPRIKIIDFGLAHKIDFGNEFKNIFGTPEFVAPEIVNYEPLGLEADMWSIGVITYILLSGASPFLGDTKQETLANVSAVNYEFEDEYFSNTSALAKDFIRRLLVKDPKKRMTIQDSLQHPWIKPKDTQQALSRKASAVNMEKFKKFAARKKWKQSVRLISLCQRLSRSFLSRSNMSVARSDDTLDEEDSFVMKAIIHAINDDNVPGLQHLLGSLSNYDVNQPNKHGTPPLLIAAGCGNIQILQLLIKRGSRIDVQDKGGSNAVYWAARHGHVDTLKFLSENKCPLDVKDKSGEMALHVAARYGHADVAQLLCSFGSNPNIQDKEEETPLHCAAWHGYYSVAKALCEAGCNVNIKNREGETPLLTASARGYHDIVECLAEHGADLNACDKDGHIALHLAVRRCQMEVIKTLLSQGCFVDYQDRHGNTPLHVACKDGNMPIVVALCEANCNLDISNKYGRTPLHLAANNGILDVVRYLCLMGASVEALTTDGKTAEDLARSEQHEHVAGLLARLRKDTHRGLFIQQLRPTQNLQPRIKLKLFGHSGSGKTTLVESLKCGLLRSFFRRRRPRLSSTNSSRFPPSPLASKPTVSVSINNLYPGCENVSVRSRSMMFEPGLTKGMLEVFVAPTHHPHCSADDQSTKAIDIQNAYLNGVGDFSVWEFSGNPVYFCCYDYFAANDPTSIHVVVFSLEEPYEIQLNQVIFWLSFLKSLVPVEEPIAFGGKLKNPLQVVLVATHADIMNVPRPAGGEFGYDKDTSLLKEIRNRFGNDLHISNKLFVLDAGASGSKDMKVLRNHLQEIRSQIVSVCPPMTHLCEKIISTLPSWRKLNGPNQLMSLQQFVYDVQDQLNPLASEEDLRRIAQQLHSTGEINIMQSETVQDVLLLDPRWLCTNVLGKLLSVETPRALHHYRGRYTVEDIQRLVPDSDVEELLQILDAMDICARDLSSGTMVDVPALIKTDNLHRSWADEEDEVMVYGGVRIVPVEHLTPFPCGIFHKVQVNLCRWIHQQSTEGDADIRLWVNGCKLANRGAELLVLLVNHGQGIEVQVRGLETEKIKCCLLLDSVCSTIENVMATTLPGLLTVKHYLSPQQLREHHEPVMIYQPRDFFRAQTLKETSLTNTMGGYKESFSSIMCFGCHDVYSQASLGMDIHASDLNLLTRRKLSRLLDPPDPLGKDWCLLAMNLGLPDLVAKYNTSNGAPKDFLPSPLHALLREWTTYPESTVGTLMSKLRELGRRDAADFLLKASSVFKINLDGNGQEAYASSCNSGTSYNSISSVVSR
Sequence of Ephrin type-B receptor 4 (Homo sapiens) (P54760 whole entry): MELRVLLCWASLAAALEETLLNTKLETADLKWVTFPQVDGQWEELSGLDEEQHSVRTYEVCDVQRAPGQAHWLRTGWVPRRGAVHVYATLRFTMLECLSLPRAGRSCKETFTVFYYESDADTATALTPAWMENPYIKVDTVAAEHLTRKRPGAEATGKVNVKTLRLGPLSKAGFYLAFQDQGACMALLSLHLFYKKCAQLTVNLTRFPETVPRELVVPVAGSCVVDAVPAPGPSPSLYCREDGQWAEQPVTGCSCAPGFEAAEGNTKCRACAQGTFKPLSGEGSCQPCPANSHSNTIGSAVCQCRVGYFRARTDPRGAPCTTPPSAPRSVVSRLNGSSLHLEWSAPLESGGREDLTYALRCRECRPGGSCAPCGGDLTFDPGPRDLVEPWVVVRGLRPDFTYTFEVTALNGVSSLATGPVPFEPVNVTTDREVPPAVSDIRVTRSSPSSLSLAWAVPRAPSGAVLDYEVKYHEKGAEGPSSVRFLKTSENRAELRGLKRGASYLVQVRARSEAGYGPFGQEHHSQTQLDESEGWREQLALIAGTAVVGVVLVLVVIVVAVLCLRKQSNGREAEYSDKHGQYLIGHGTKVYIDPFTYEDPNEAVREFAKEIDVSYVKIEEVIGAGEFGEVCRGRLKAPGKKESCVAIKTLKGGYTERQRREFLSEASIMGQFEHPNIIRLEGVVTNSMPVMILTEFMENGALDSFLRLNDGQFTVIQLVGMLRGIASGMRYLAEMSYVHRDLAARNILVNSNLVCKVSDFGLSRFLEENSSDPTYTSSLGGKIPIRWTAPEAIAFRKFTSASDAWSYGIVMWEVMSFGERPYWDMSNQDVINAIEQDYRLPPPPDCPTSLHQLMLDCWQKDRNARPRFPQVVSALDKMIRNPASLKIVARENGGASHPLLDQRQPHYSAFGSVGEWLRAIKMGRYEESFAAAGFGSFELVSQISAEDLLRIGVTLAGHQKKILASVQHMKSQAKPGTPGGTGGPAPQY
Sequence of Calcium/calmodulin-dependent protein kinase type II subunit delta (Homo sapiens) (Q13557 whole entry, canonical isoform): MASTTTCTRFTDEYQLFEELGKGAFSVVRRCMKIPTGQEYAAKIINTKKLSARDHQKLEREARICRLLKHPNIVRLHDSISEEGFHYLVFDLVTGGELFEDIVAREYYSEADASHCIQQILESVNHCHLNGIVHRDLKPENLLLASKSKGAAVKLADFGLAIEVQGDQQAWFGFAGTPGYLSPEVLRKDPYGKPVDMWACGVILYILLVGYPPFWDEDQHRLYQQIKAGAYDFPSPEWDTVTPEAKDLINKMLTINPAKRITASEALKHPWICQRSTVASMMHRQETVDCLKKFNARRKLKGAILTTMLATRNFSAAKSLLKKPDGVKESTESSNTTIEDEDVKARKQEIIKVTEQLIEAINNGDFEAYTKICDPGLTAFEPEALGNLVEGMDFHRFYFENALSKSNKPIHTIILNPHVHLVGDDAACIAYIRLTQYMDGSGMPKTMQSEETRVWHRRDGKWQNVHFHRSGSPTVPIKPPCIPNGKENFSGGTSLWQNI
Sequence of Mitogen-activated protein kinase 11 (Homo sapiens) (Q15759 whole entry): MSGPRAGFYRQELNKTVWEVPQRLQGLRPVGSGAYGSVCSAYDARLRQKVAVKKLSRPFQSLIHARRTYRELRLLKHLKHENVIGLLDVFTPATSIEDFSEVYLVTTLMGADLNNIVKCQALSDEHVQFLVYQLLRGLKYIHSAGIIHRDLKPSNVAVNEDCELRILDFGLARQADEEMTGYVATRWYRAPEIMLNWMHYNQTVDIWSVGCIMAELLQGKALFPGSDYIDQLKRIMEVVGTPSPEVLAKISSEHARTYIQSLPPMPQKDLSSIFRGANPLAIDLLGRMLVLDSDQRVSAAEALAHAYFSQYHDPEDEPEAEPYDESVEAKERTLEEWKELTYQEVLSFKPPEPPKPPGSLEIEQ
Sequence of Macrophage colony-stimulating factor 1 receptor (Homo sapiens) (P07333 whole entry): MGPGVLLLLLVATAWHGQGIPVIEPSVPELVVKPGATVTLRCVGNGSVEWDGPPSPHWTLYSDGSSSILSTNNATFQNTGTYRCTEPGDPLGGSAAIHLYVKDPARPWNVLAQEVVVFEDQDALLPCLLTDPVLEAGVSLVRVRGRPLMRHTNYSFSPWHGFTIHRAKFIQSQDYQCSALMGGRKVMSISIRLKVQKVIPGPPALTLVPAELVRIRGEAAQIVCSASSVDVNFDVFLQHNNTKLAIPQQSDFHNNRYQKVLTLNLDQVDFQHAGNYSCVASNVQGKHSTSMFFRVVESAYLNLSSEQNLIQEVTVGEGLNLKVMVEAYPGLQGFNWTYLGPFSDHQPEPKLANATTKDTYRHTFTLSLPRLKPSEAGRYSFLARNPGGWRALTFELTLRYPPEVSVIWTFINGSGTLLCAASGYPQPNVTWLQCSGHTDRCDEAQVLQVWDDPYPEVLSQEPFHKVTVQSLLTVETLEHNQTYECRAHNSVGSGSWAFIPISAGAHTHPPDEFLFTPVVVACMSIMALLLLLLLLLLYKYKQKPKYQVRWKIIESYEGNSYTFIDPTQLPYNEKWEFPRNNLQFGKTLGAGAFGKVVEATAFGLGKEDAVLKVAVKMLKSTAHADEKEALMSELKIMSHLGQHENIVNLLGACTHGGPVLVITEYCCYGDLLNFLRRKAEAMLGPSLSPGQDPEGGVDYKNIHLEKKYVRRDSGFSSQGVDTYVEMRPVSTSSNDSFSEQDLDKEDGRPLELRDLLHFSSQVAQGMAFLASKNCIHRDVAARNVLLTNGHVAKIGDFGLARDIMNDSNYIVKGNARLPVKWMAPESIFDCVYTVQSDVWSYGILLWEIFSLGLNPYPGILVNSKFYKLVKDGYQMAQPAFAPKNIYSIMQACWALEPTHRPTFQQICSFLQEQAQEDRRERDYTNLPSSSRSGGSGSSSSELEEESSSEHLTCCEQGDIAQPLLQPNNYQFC

Row | SMILES | inhibition [1] [%] | inhibition [2] [%] | inhibition [3] [%] | inhibition [4] [%] | inhibition [5] [%] | inhibition [6] [%] | inhibition [7] [%] | inhibition [8] [%] | inhibition [9] [%] | inhibition [10] [%] | inhibition [11] [%] | inhibition [12] [%] | inhibition [13] [%] | inhibition [14] [%] | inhibition [15] [%] | inhibition [16] | inhibition [17] [%]
1 | Nc1n[nH]c2nnc(-c3c(-c4ccccc4)nn4ccccc34)cc12 | 17.4 | -0.21 | 3.29 | 0.55 | 10 | 3.19 | 6.01 | 36.5 | 4.15 | 1.54 | -4.17 | 2.31 | 3.52 | 36.8 | 1.83 | Active | 6.62
2 | Oc1n[nH]c2nnc(-c3c(-c4ccccc4)nn4ccccc34)cc12 | 8.79 | -1.47 | 6.89 | 0.96 | 5.77 | 5 | 0.54 | 4.49 | 6.45 | 2.91 | -1.61 | 4.74 | 2.55 | 4.93 | 11.6 | Active | 4.33
